≈ marks a conversion by molar mass, not a printed value. Where “and” joins values, the source holds several entries; their conditions need not be identical. Identical values can stand only once. Like-named read-outs stand apart in the source and are kept apart here.
Legend:
[1] = tested on: Salmonella typhimurium strains TA98 and TA100; format: cell-based
Procedure: The Ames assay was performed at SRI Biosciences, following the standard protocols established there[55]–[57]. In brief, samples were evaluated for their ability to induce genetic damage using the plate incorporation method with Salmonella typhimurium strains TA98 and TA100 with and without a metabolic activation mixture containing 10% Aroclar-1254-induced rat-liver microsomes (S9). MBX-4132 was tested from a 5 mg/mL DMSO stock solution (the solubility limit), which provided plate concentrations up to 500 µg/plate, with serial dilutions accessing doses as low as 5 µg/plate. MBX-4132 precipitated at the two highest dose levels (500 and 100 µg/plate), but at 50 µg/plate, no precipitation was observed. […] Test articles were considered mutagenic when the mean number of revertant colonies increased in a dose-dependent manner. Some cytotoxicity was observed, but sufficient colonies were formed to allow analysis. […] Data for 2-nitrofluorene and sodium azide (positive controls) and DMSO (negative control) were included for reference.

[2] = tested on: N. gonorrhoeae strain H041; test: In vivo efficacy in the gonorrhea mouse model; settings: for mouse cfu: individual mice, 2.00E+01 = no CFU/mL recovered, limit of detection
[3] = tested on: N. gonorrhoeae ATCC 49226; test: Time-kill assay
[4] = Liver microsome stability, murine; format: in vitro ADME, mouse; settings: murine liver microsomes
Procedure: To examine potential for first-pass metabolism of analogs in the liver, the stability of analogs in the presence of liver microsome preparations (Eurofins Discovery for human, dog and rat; Xenotech for mouse) was measured using the method of Kuhnz, et al.[50]. for murine studies and Oback for the dog, human and rat studies. The amount of parent compound remaining after incubation with microsomes in the presence of NADPH over a 30 min time range was measured using a reverse-phase liquid chromatography/mass spectroscopy method that was customized for each compound. Half-lives were calculated using linear regression analysis of several time points.

[5] = Aqueous solubility (nephelometric); format: physicochemical
Neisseria gonorrhoeae = test: MIC, microbroth dilution, G77L medium; format: cell-based

## [N-]=[N+]=[N-].[Na+] [Sodium Azide, reference compound]
[1]; TA100, 5 µg/plate, no S9
  Average Mean Revertants/plate: 2029.0 Revertants/plate
[1]; TA100, 5 µg/plate, no S9, replicates
  Mean Revertants/plate: 1978 Revertants/plate and 2032 Revertants/plate and 2077 Revertants/plate
[1]; TA100, without S9, 5 µg/plate
  Mean Revertants/plate: 2029.0

## Nc1ccc2cc3ccccc3cc2c1 [2-Aminoanthracene, reference compound]
[1]; TA98, 2 µg/plate, + S9
  Average Mean Revertants/plate: 1206.7 Revertants/plate
[1]; TA98, 2 µg/plate, + S9, replicates
  Mean Revertants/plate: 1086 Revertants/plate and 1134 Revertants/plate and 1400 Revertants/plate
[1]; TA98, + S9, 2 µg/plate
  Mean Revertants/plate: 1206.7
[1]; TA100, 2 µg/plate, + S9
  Average Mean Revertants/plate: 1438.7 Revertants/plate
[1]; TA100, 2 µg/plate, + S9, replicates
  Mean Revertants/plate: 1428 Revertants/plate and 1389 Revertants/plate and 1499 Revertants/plate
[1]; TA100, + S9, 2 µg/plate
  Mean Revertants/plate: 1438.7

## CNC(C)C1CCC(N)C(OC2C(N)CC(N)C(OC3OCC(C)(O)C(NC)C3O)C2O)O1 (stereo not shown) [gentamicin, reference compound]
[2]; Day 5, GEN, listed as GEN
  mouse cfu: 2.00E+01 CFU/mL (19×) and 3.11E+03 CFU/mL
[2]; Day 6, GEN, listed as GEN
  mouse cfu: 2.00E+01 CFU/mL (19×) and 6.14E+04 CFU/mL
[2]; Day 7, GEN, listed as GEN
  mouse cfu: 2.00E+01 CFU/mL (19×) and 3.22E+05 CFU/mL
[2]; Day 8, GEN, listed as GEN
  mouse cfu: 2.00E+01 CFU/mL (19×) and 5.02E+06 CFU/mL
[2]; Day -1, GEN, listed as GEN
  mouse cfu: 1.75E+06 CFU/mL and 2.50E+03 CFU/mL and 5.59E+05 CFU/mL and 1.30E+04 CFU/mL and 2.52E+05 CFU/mL and 1.60E+05 CFU/mL and 6.90E+06 CFU/mL and 1.04E+06 CFU/mL and 2.76E+04 CFU/mL and 2.76E+06 CFU/mL and 1.05E+03 CFU/mL and 2.80E+06 CFU/mL and 2.25E+06 CFU/mL and 3.27E+05 CFU/mL and 1.99E+05 CFU/mL and 1.82E+05 CFU/mL and 1.55E+06 CFU/mL and 1.50E+06 CFU/mL and 9.59E+05 CFU/mL and 4.61E+03 CFU/mL
[2]; GEN, individual mice 21-40, 1 = cleared on the day, 0 = not cleared, listed as GEN
  mice cleared per day: cleared flag: 1 and 0
[2]; GEN, individual mice 21-40, Day 8 with flag 0 = not cleared, listed as GEN
  Day (mice cleared per day: day on which the mouse was cleared): 1 and 4 and 8 and 3 and 5 and 2
[2]; daily intraperitoneal injection 48 mg/kg for 5 days, N. gonorrhoeae H041
  treated mice with infection cleared: 95%

## CO/N=C(\C(=O)N[C@@H]1C(=O)N2C(C(=O)O)=C(CSc3nc(=O)c(=O)[nH]n3C)CS[C@H]12)c1csc(N)n1 [CRO, reference compound]
[3]; 1X MIC, 0 h
  AVE CFU/ml: 9800000 CFU/ml
[3]; 1X MIC, 1 h
  AVE CFU/ml: 8.20E+06 CFU/ml and 8200000 CFU/ml
  CFU/mL, replicates 1-3: 8200000 CFU/mL and 8000000 CFU/mL and 8400000 CFU/mL
[3]; 1X MIC, 2 h
  AVE CFU/ml: 3.47E+06 CFU/ml and 3466667 CFU/ml
  CFU/mL, replicates 1-3: 3800000 CFU/mL and 3200000 CFU/mL and 3400000 CFU/mL
[3]; 1X MIC, 4 h
  AVE CFU/ml: 60666.7 CFU/ml and 6.07E+04 CFU/ml
  CFU/mL, replicates 1-3: 60000 CFU/mL and 58000 CFU/mL and 64000 CFU/mL
[3]; 1X MIC, 6 h
  AVE CFU/ml: 27333.3 CFU/ml and 2.73E+04 CFU/ml
  CFU/mL, replicates 1-3: 24000 CFU/mL and 32000 CFU/mL and 26000 CFU/mL
[3]; 1X MIC, 8 h
  AVE CFU/ml: 5733.33 CFU/ml and 5.73E+03 CFU/ml
  CFU/mL, replicates 1-3: 5800 CFU/mL and 5400 CFU/mL and 6000 CFU/mL
[3]; 1X MIC, 24 h
  AVE CFU/ml: 2466667 CFU/ml and 2.47E+06 CFU/ml
  CFU/mL, replicates 1-3: 2400000 CFU/mL and 2200000 CFU/mL and 2800000 CFU/mL
[3]; 4X MIC, 0 h
  AVE CFU/ml: 9800000 CFU/ml
[3]; 4X MIC, 1 h
  AVE CFU/ml: 7.67E+06 CFU/ml and 7666667 CFU/ml
  CFU/mL, replicates 1-3: 7800000 CFU/mL and 7200000 CFU/mL and 8000000 CFU/mL
[3]; 4X MIC, 2 h
  AVE CFU/ml: 3.87E+06 CFU/ml and 3866667 CFU/ml
  CFU/mL, replicates 1-3: 3400000 CFU/mL and 4000000 CFU/mL and 4200000 CFU/mL
[3]; 4X MIC, 4 h
  AVE CFU/ml: 40000 CFU/ml and 4.00E+04 CFU/ml
  CFU/mL, replicates 1-3: 36000 CFU/mL and 42000 CFU/mL (2×)
[3]; 4X MIC, 6 h
  AVE CFU/ml: 5266.67 CFU/ml and 5.27E+03 CFU/ml
  CFU/mL, replicates 1-3: 4400 CFU/mL and 5200 CFU/mL and 6200 CFU/mL
[3]; 4X MIC, 8 h
  AVE CFU/ml: 1066.67 CFU/ml and 1.07E+03 CFU/ml
  CFU/mL, replicates 1-3: 1400 CFU/mL and 800 CFU/mL and 1000 CFU/mL
[3]; 4X MIC, 24 h
  AVE CFU/ml: 0 CFU/ml and 0.00E+00 CFU/ml
  CFU/mL, replicates 1-3: 0 CFU/mL
[3]; Neisseria gonorrhoeae, ATCC49226
  MIC: 0.008 µg/mL (≈ 0.0144 µM)

## O=C(Nc1nnc(-c2ccc(F)cc2)o1)c1ccccc1 [MBX-C4227]
[4]; average of replicates
  Average MLMS t½: <5 min
[4]; individual replicates
  MLMS t½: <5 min
[5]
  Average solubility: 50 µM
[5]; single replicates
  Solubility: 50 µM (≈ 14.2 µg/mL)

## O=C(Nc1nnc(-c2ccc(F)cc2)o1)N1CCc2ccccc2C1 [MBX4132]
Neisseria gonorrhoeae; strain MMX 6744, single data point, Micromyx
  MIC: 0.27 µg/mL (≈ 0.798 µM)
Neisseria gonorrhoeae; strain MMX 6746, single data point, Micromyx
  MIC: 0.14 µg/mL (≈ 0.414 µM)
Neisseria gonorrhoeae; strain MMX 6752, single data point, Micromyx
  MIC: 0.27 µg/mL (≈ 0.798 µM)
Neisseria gonorrhoeae; strain MMX 6753, single data point, Micromyx
  MIC: 0.14 µg/mL (≈ 0.414 µM)
Neisseria gonorrhoeae; strain MMX 6757, single data point, Micromyx
  MIC: 0.07 µg/mL (≈ 0.207 µM)
Neisseria gonorrhoeae; strain MMX 6758, single data point, Micromyx
  MIC: 0.27 µg/mL (≈ 0.798 µM)
Neisseria gonorrhoeae; strain MMX 6762, single data point, Micromyx
  MIC: 0.27 µg/mL (≈ 0.798 µM)
Neisseria gonorrhoeae; strain MMX 6767, single data point, Micromyx
  MIC: 0.14 µg/mL (≈ 0.414 µM)
Neisseria gonorrhoeae; strain MMX 6771, single data point, Micromyx
  MIC: 0.14 µg/mL (≈ 0.414 µM)
Neisseria gonorrhoeae; strain MMX 6793, single data point, Micromyx
  MIC: 0.14 µg/mL (≈ 0.414 µM)
Neisseria gonorrhoeae; strain MMX 6797, single data point, Micromyx
  MIC: 0.14 µg/mL (≈ 0.414 µM)
Neisseria gonorrhoeae; strain MMX 6803, single data point, Micromyx
  MIC: 0.27 µg/mL (≈ 0.798 µM)
Neisseria gonorrhoeae; strain MMX 6812, single data point, Micromyx
  MIC: 0.27 µg/mL (≈ 0.798 µM)
Neisseria gonorrhoeae; strain MMX 6818, single data point, Micromyx
  MIC: 0.27 µg/mL (≈ 0.798 µM)
Neisseria gonorrhoeae; strain MMX 6819, single data point, Micromyx
  MIC: 0.14 µg/mL (≈ 0.414 µM)
Neisseria gonorrhoeae; strain MMX 6879, single data point, Micromyx
  MIC: 0.14 µg/mL (≈ 0.414 µM)
Neisseria gonorrhoeae; strain MMX 6921, single data point, Micromyx
  MIC: 0.53 µg/mL (≈ 1.57 µM)
Neisseria gonorrhoeae; strain MMX 6922, single data point, Micromyx
  MIC: 0.53 µg/mL (≈ 1.57 µM)
Neisseria gonorrhoeae; strain MMX 6983, single data point, Micromyx
  MIC: 0.53 µg/mL (≈ 1.57 µM)
Neisseria gonorrhoeae; strain MMX 6989, single data point, Micromyx
  MIC: 0.14 µg/mL (≈ 0.414 µM)
Neisseria gonorrhoeae; strain MMX 6990, single data point, Micromyx
  MIC: 0.14 µg/mL (≈ 0.414 µM)
Neisseria gonorrhoeae; strain MMX 6992, single data point, Micromyx
  MIC: 0.14 µg/mL (≈ 0.414 µM)
Neisseria gonorrhoeae; strain MMX 6996, single data point, Micromyx
  MIC: 0.27 µg/mL (≈ 0.798 µM)
Neisseria gonorrhoeae; strain MMX 6998, single data point, Micromyx
  MIC: 0.53 µg/mL (≈ 1.57 µM)
Neisseria gonorrhoeae; strain MMX 7002, single data point, Micromyx
  MIC: 0.27 µg/mL (≈ 0.798 µM)
Neisseria gonorrhoeae; strain MMX 7005, single data point, Micromyx
  MIC: 0.03 µg/mL (≈ 0.0887 µM)
Neisseria gonorrhoeae; strain MMX ATCC 49226, single data point, Micromyx
  MIC: 0.27 µg/mL (≈ 0.798 µM)

## O=[N+]([O-])c1ccc2c(c1)Cc1ccccc1-2 [2-Nitrofluorene, reference compound]
[1]; TA98, 5 µg/plate, no S9
  Average Mean Revertants/plate: 1331.3 Revertants/plate
[1]; TA98, 5 µg/plate, no S9, replicates
  Mean Revertants/plate: 1220 Revertants/plate and 1245 Revertants/plate and 1529 Revertants/plate
[1]; TA98, without S9, 5 µg/plate
  Mean Revertants/plate: 1331.3

## O=C(Nc1nnc(-c2ccc(F)cc2)o1)c1ccccc1 [MBXC1-4227]
Neisseria gonorrhoeae; Neisseria gonorrhoeae ATCC 49226, source data, individual replicates
  MIC: 0.8852 µg/mL and 0.4426 µg/mL
